Assays:
[1] = molecular target: T1, human neutrophil elastase (HNE) (Homo sapiens, UniProt P08246); assay: Specificity assay, neutrophil elastase; type: biochemical; conditions: 2 h enzyme-inhibitor pre-incubation; read-out: HLE activity in the specificity assays (IC50)
T1 construct: purchased Sigma
T1 sequence (P08246 30-267): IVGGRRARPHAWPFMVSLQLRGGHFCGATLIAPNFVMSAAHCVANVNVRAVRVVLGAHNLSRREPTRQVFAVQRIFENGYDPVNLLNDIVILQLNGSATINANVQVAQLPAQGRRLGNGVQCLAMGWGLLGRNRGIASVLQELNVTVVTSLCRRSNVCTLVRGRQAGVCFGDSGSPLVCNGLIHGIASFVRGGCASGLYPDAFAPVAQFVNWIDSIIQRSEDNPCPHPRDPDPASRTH
Protocol: The specificities of compounds of the present disclosure were determined against a variety of serine proteases: human neutrophil elastase (HNE), porcine pancreatic elastase (PPE) and human pancreatic chymotrypsin and one cysteine protease: human liver cathepsin B. In all cases a 96-well plate format protocol using calorimetric p-nitroaniline (pNA) substrate specific for each enzyme was used as described previously (PCT Patent Application No. WO 00/09543) with some modifications to the serine protease assays. All enzymes were purchased from Sigma while the substrates were from Bachem.
Each assay included a 2 h enzyme-inhibitor pre-incubation at room temperature followed by addition of substrate and hydrolysis to 30% conversion as measured on a Spectramax Pro microplate reader. Compound concentrations varied from 100 to 0.4 μM depending on their potency. […]
The percentage of inhibition was calculated using the formula: [1−((UVinh−UVblank)/(UVctl−UVblank))]×100 […]

[2] = molecular target: T2, HCV NS3/4A protease complex, J4L6S strain (Hepatitis C virus genotype 1b, UniProt O92972, C1454S/C1711G); assay: FRET peptide assay to monitor HCV NS3/4A proteolytic activity (J4L6S strain); type: biochemical, HCV genotype 1b; conditions: read-out: IC50 against NS3/4A J4L6S strain
T2 construct: DNA encoding the recombinant HCV NS3/4A protease complex (amino acids 1027 to 1711) for these strains; inferred from pET21b vector and Ni-NTA purification; made in house; host or cells: Escherichia coli BL21 (DE3), pET21b
From the text: HCV NS3 protease complexes, derived from the BMS strain, H77 strain or J4L6S strain, were generated, as described below. These purified recombinant proteins were generated for use in a homogeneous assay (see below) to provide an indication of how effective compounds of the present disclosure would be in inhibiting HCV NS3 proteolytic activity.
The H77 and J4L6S strains were used for production of recombinant NS3/4A protease complexes. DNA encoding the recombinant HCV NS3/4A protease complex (amino acids 1027 to 1711) for these strains were manipulated as described by P. Gallinari et al. (see Gallinari P, Paolini C, Brennan D, Nardi C, Steinkuhler C, De Francesco R. Biochemistry. 38(17):5620-32, (1999)). Briefly, a three-lysine solubilizing tail was added at the 3′-end of the NS4A coding region. The cysteine in the P1 position of the NS4A-NS4B cleavage site (amino acid 1711) was changed to a glycine to avoid the proteolytic cleavage of the lysine tag. Furthermore, a cysteine to serine mutation was introduced by PCR at amino acid position 1454 to prevent the autolytic cleavage in the NS3 helicase domain. […]

T2 sequence (O92972 1027-1711 C1454S/C1711G, one chain of several): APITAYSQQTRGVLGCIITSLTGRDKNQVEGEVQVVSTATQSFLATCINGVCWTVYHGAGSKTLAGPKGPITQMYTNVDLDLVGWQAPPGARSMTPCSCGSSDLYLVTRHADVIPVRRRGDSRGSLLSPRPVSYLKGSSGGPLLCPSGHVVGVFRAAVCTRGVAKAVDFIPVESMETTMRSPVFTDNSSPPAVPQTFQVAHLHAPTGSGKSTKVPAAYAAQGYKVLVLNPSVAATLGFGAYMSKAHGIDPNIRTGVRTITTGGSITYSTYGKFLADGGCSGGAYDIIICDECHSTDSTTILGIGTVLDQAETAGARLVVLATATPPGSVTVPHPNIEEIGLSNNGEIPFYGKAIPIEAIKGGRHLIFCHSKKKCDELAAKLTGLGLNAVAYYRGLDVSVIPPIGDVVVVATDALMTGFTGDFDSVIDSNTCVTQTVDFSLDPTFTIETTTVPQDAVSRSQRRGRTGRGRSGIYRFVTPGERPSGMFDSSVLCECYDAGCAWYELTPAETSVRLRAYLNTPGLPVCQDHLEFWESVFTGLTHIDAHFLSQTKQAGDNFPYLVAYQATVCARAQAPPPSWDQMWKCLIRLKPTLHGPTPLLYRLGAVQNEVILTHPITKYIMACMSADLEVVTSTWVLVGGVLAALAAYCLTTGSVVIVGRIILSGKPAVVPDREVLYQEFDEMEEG

**Q.** Which IC50 [1] does the source give for C=C[C@@H]1C[C@]1(NC(=O)[C@@H]1C[C@@](O)(c2ccc(-c3ccccc3)cc2)CN1C(=O)[C@@H](NC(=O)OC(C)(C)C)C(C)(C)C)C(=O)NS(=O)(=O)C1CC1 [Compound 3] here?
**A.** > 100000 nM

**Q.** What about the IC50 [2] of the same compound?
**A.** 0.9 nM

— patent publication US7592336B2, “Hepatitis C virus inhibitors” (Bristol-Myers Squibb Company, priority 2005, dated 2009)
